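Five concentrations, 48 hours, 96-well plates. Here, GI50 denotes the concentration required for 50% inhibition of growth. The concentration for full growth arrest is given as TGI.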
What was measured:
Assay in all cases: NCI anticancer screen, dose series, 48 h
[1] = system: OVCAR-8 ovarian
[2] = system: A498 renal
[3] = system: RXF 393 renal
[4] = system: LOX IMVI melanoma
[5] = system: OVCAR-3 ovarian
[6] = system: NCI-H226 lung
[7] = system: K-562 leukemia
[8] = system: CCRF-CEM leukemia
[9] = system: SR leukemia
[10] = system: DU-145 prostate
[11] = system: HT29 colon
[12] = system: SNB-75 CNS
[13] = system: OVCAR-5 ovarian
[14] = system: PC-3 prostate
[15] = system: MALME-3M melanoma
[16] = system: NCI/ADR-RES ovarian
[17] = system: SNB-19 CNS
[18] = system: NCI-H460 lung
[19] = system: HS 578T breast
[20] = system: 786-0 renal
[21] = system: HCC-2998 colon
[22] = system: SW-620 colon
[23] = system: SK-MEL-5 melanoma
[24] = system: U251 CNS
[25] = system: MDA-MB-468 breast
[26] = system: HOP-92 NSCLC
[27] = system: HCT-116 colon
[28] = system: EKVX NSCLC
[29] = system: CAKI-1 renal
[30] = system: SK-OV-3 ovarian

CN(C)c1ccnc(CNCCSC2(c3ccc(C(F)(F)F)cc3)c3ccccc3C=Cc3ccccc32)c1
GI50 [1]: 1.18 µM
TGI [1]: 4.73 µM
GI50 [2]: 11.9 µM
TGI [2]: 27.2 µM
GI50 [3]: 1.97 µM
TGI [3]: 7.54 µM
GI50 [4]: 2.2 µM
TGI [4]: 6.16 µM
GI50 [5]: 1.73 µM
TGI [5]: 5.93 µM
GI50 [6]: 5.45 µM
TGI [6]: 16.3 µM
GI50 [7]: 2.8 µM
TGI [7]: 14 µM
GI50 [8]: 1.06 µM
TGI [8]: 13.4 µM
GI50 [9]: 0.723 µM
TGI [9]: 4.15 µM
GI50 [10]: 3.12 µM
TGI [10]: 10.8 µM
GI50 [11]: 1.79 µM
TGI [11]: 5.65 µM
GI50 [12]: 1.76 µM
TGI [12]: 6.61 µM
GI50 [13]: 2.74 µM
TGI [13]: 11.2 µM
GI50 [14]: 1.49 µM
TGI [14]: 11.3 µM
GI50 [15]: 2.35 µM
TGI [15]: 6.51 µM
GI50 [16]: 2 µM
TGI [16]: 4.39 µM
GI50 [17]: 3.53 µM
TGI [17]: 17.3 µM
GI50 [18]: 1.09 µM
TGI [18]: 3.86 µM
GI50 [19]: 1.57 µM
TGI [19]: 6.75 µM
GI50 [20]: 2.49 µM
TGI [20]: 7.12 µM
GI50 [21]: 0.91 µM
TGI [21]: 2.63 µM
GI50 [22]: 1 µM
TGI [22]: 4.45 µM
GI50 [23]: 1.96 µM
TGI [23]: 5.43 µM
GI50 [24]: 1.11 µM
TGI [24]: 4.03 µM
GI50 [25]: 0.74 µM
TGI [25]: 1.99 µM
GI50 [26]: 2.17 µM
TGI [26]: 10.2 µM
GI50 [27]: 0.611 µM
TGI [27]: 12.5 µM
GI50 [28]: 1.77 µM
TGI [28]: 14.2 µM
GI50 [29]: 4.37 µM
TGI [29]: 16.5 µM
GI50 [30]: 4.38 µM
